Laboratory results taken from BindingDB's records for doi:10.1021/acs.jmedchem.9b01183 (Univ. Lille, 2020).

test: Inhibition of STAT5b in mouse BaF3/FLT3-ITD cells assessed as reduction in cell proliferation

Structure (SMILES) | IC50
O=C(O)c1nonc1NCn1nnnc1Cc1ccccc1 | 76 µM
O=C(O)c1nonc1NCn1cnnn1 | 153 µM
COC(=O)c1nonc1NCn1cnnn1 | 25 µM
